Measured values from US20260176628A1, “TARGETED EPIGENETIC EDITING AS NOVEL THERAPY FOR MALIGNANT GLIOMA” (The Regents of the University of California, priority 2022, published 2026).

Legend:
MGMT CpG island = experiment: Bisulfite sequencing (BiSEQ) of TA clones; format: cell-based, human; settings: for location of methylated CpG sites: LN18 dCas9-DNMT3A-CD/sgRNA clones, Region 1 (sgRNA4) or Region 2 (sgRNA1, 2, 3)
Source text: FIG. 2 Bisulfite sequencing of representative clones with induced methylation patterns of CpG sites at CRISPR-targeted regions within the MGMT CpG island. (a) Map of MGMT CpG island, 762 bp in length, encompassing promoter, exon 1, enhancer, and intron 1 regions. Comprehensive map of the MGMT gene with superimposed locations of Illumina probes (yellow boxes) as well as exon (salmon), intron (purple), and promoter/upstream (gray) regions. Locations of complementary sequences to the four sgRNAs are as shown. Open star, half-closed star and closed star regions indicate locations of differentially methylated Illumina probes. F1/R1 and F2/R2 indicate nested PCR primer pairs for Region 1 and Region 2, respectively. Inset: MGMT CpG island (individual CpG sites in light green) and relative locations of Region 1 and Region 2. CpG sites 22, 57, 72, and 96 indicate the specific sites flanking each region, numbered in order from 5′ to 3′ within the CpG island. Differentially methylated regions are shown (DMR1 and DMR2), located within assayed Region 1 and 2, respectively. MSP region is also shown within DMR2. Genetic regions and positions on Chromosome 10 were determined using the UCSC genome browser (GRCh37/hg19 assembly) and the 850K array probe annotation file provided by Illumina. (b) Lollipop schematic illustrating the distribution of CpG methylation sites in each representative clonal population (red circle=methylated site; gray circle=unmethylated site). Genomic DNA from LN18 cells containing either dCas9-DNMT3A/non-specific sgRNA or dCas9-DNMT3A/sgRNAs underwent sodium bisulfite treatment, followed by nested PCR amplification. Amplicons of Region 1 and Region 2 were obtained separately and used to generate individual clones for each region via TA cloning. Abbreviations for individual clone nomenclature (e.g., “4-NSC1” vs. “13-NSC1”): “4”=Region containing sgRNA4 target sequence; “13”=Region containing sgRNA 1, 2, 3 target sequences. “NSC” vs. “SgR” indicates whether clone source was transfected with non-specific sgRNA or sgRNA1, 2, 3, 4. Numbers following NSC or SgR designation indicate individual clone numbers. Each row of the schematic (per category, NSC or SgR) represents a single clone. Regional CpG sites as per Malley et al (2011): DMR1=CpG 25-50; DMR2=CpG 73-90; MSP=CpG 76-87 (MSP-F=CpG 76-80; MSP-R=CpG 84-87). Core/minimal promoter=CpG 50-62; Enhancer=CpG 82-87. […] Blue arrows indicate CpG sites that are methylated (converted from T-G to C-G). Region 1 includes the sequence targeted by sgRNA4 (s4). Region 2 includes the sequence targeted by sgRNA 1, 2 and 3 (s1, s2, s3).
Bisulfite Sequencing. DNA was isolated using DNEasy Blood & Tissue Kit (Qiagen, Catalog #69506). Bisulfite conversion was accomplished using EZ DNA Methylation-Gold (Zymo Research, Catalog #D5005) per kit protocol. Nested PCR primers were used as follows: […]
Region 1: First PCR primer pair F4/R4; second PCR pair F5/R4.
Region 2: First PCR primer pair F1/R1; second PCR pair F1/SeqR.
Sequencing reactions were performed using BigDye Terminator v3.1 Cycle Sequencing Kit (ThermoFisher, Cat #433750) with sequencing primers (R4 primer=Region 1; SeqR primer=Region 2); samples were purified by PCR Clean-Up Performa Spin Columns (EdgeBio Cat #13266) and submitted for Sanger sequencing analysis (Laragen, Culver City, CA).
TA Cloning. Sodium bisulfite-treated genomic DNA underwent nested PCR as above, for either Region 1 or 2. […]

LN18 human glioma cells [1] = experiment: MTT survival assay, TMZ sensitivity; format: cell-based; settings: TMZ 25 μM or 100 μM, 5 days, vs DMSO
Method: FIG. 4 Effects of dCas9-DNMT3A-CD/MGMT-specific sgRNA targeted methylation on the sensitivity of glioma cells to temozolomide. […] Negative control: LN18 NSC cells. The “n” indicates the number of separate experiments performed for each cell type. Results were normalized to the average negative control treatment condition (drug vehicle DMSO). TMZ concentrations ranged from 25 µM to 100 µM. Horizontal bars for all figures represent post hoc Tukey's multiple comparisons test results for groups of interest following two-way ANOVA (“ns” indicates “p>0.05”; * indicates p<0.05; ** indicates p<0.01; *** indicates p<0.001; **** indicates p<0.0001). (a) TMZ sensitivity measured via MTT survival assays in LN18 cells co-expressing dCas9-DNMT3A-CD (d3A) and MGMT-targeting sgRNAs (sg1, 2, 3, 4) compared to NSC lines. […] MTT cell survival was calculated by subtracting […] for TMZ-treated cells (25 µM and 100 µM, 5 days) versus DMSO treatment control condition, followed by normalization to the average control condition.
Cell Survival Assays. […] Formazan product was extracted by cell lysis with DMSO (300 μL) and measured (560 nm absorbance with background subtraction of 660 nm). […]

LN18 human glioma cells [2] = experiment: Clonogenic assay, TMZ sensitivity; format: cell-based; settings: TMZ 12 days total treatment, vs DMSO
MGMT = target: T1, MGMT (Homo sapiens, UniProt P16455); settings: Phase II clinical trial, cited from earlier work
T1 construct: host or cells: patients (clinical trial)
T1 sequence (P16455 1-207): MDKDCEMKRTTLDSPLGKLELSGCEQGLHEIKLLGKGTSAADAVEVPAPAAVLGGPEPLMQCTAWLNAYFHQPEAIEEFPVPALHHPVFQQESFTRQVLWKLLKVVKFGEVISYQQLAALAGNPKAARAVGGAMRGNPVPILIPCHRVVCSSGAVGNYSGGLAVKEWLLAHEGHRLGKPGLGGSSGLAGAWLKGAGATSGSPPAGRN

## 5′-AGGCGCCCTCACTTCGCCGT-3′ (guide (5'-AGGCGCCCTCACTTCGCCGT-3'; as printed in the source, key not given here) [sgRNA2]
MGMT CpG island
  location of methylated CpG sites: CpG 77, 81-89

## 5′-AGGGCATGCGCCGACCCGGT-3′ (guide (5'-AGGGCATGCGCCGACCCGGT-3'; as printed in the source, key not given here) [sgRNA4]
MGMT CpG island
  location of methylated CpG sites: CpG 22-38
MGMT CpG island; Region 1, to upstream 5′ limit of amplicon (CpG 22)
  methylation radius upstream from sgRNA: 20 bp

## 5′-CTTTGCGTCCCGACGCCCGC-3′ (guide (5'-CTTTGCGTCCCGACGCCCGC-3'; as printed in the source, key not given here) [sgRNA3]
MGMT CpG island
  location of methylated CpG sites: CpG 77, 81-89

## 5′-GGTGCGCACCGTTTGCGACT-3′ (guide (5'-GGTGCGCACCGTTTGCGACT-3'; as printed in the source, key not given here) [sgRNA1]
MGMT CpG island
  location of methylated CpG sites: CpG 77, 81-89

## 5′-GTATTACTGATATTGGTGGG-3′ (chemistry not given here) [NSC]
LN18 human glioma cells [1]
  TMZ sensitivity (MTT survival): Essentially no TMZ sensitivity
LN18 human glioma cells [2]
  TMZ sensitivity (clonogenic survival): Essentially no TMZ sensitivity

## Nc1nc(OCc2ccccc2)c2nc[nH]c2n1 [O-6-benzylguanine]
MGMT
  clinical benefit: limited benefits
MGMT; including off-target bone marrow suppression
  toxicity: severe dose-limiting toxicities
